Where a chain is given by its changes, count along the chain named. Entries after “also recorded” stand apart in the source; their conditions may differ. Read-outs that look alike come from different tables or passages of the source.
Assays:
FLJ39553-derived protein = target: T1, FLJ39553-derived protein (Homo sapiens, UniProt Q6P6B1, N326S); assay: SEC/MS interaction analysis, FLJ39553-derived protein (hypothetical protein FLJ39553); format: binding; conditions: TSKgel super SW2000 micro-LC column (1.0 mm ID×30 mm); presence vs absence of protein; data not shown
T1 construct: His-tag (N); made in house; host or cells: Escherichia coli BL21star(DE3)pLysS
T1 sequence (Q6P6B1 1-374 N326S): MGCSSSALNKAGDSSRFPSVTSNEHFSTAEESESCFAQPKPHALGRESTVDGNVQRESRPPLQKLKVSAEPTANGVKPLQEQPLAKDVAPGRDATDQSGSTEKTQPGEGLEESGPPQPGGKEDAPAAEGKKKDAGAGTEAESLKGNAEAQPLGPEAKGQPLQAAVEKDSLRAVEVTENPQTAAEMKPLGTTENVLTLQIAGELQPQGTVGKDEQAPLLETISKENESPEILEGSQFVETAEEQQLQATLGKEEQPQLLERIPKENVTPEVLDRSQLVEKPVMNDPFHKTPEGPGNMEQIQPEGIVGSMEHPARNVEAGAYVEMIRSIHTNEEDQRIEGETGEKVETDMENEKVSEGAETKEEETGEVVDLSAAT
Description: (§1) To analyze the interactions between commonly used drugs and proteins expressed from human full-length cDNA clones while keeping both the proteins and the compounds in non-modified, non-immobilized state, size exclusion chromatography (SEC) and mass analysis were used in combination. The specific procedures are shown below.
(§2) The compound-protein mixture prepared in step 1 was subjected to chromatography using an SEC column, the compound and the protein were separated by SEC, and the compound that interacted with the bound compound or protein contained in the protein fraction was analyzed using a mass analyzer.
(§3) Protein concentrations were measured using BCA Protein Assay (PIERCE), in consideration of the purity calculated by SDS-PAGE.
(§4) Mass analysis was performed using LCQ DECA XP (Thermoelectron) or Q-TOF micro (Micromass), equipped with an ESI probe. […]
(§5) In the 384-well spin column method, Unifilter 100 (Whatman), packed with 10 μL (dry volume) of Bio-Gel P6 (BIO-RAD) and swollen with milliQ water, was used as the SEC column. […] 2-μL of mass analysis samples were injected using an autosampler at 2-minute intervals; the mass spectral intensity of the compound was measured to retrieve the spectral intensity of the pharmaceutical compound contained in the SEC spin column filtrate (protein fraction eluted from SEC).

[1] = tested on: FLJXXXXX-derived proteins; assay: SEC/MS spin column interaction analysis of FLJXXXXX-derived proteins and various compounds (Tables 30-1 to 30-4); format: binding, human
FLJ38897-derived protein = target: T2, FLJ38897-derived protein (Homo sapiens, UniProt P57764); assay: SEC/MS interaction analysis, FLJ38897-derived protein (GSDMDC1); format: binding; conditions: spin column method; mixture with protein vs buffer solution alone; data not shown
T2 construct: His-tag (N); made in house; host or cells: Escherichia coli BL21star(DE3)pLysS
T2 sequence (P57764 265-484): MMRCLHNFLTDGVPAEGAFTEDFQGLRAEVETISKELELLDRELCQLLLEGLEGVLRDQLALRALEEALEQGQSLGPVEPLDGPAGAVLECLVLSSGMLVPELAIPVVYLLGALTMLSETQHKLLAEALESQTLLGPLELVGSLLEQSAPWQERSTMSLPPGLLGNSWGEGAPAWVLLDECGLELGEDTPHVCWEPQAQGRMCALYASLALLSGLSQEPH
Description: as §1, §2, §3
Mass analysis was performed using LCQ DECA XP (Thermoelectron) or Q-TOF micro (Micromass), equipped with an ESI probe. The LC pump used was Agilent 1100 (Yokogawa Analytical Systems), and the autosampler used was HTC-PAL (CTC Analytics) equipped with a cooling stacker. The SEC column used was a micro-LC column or a 384-well spin column. […]
In the 384-well spin column method, Unifilter 100 (Whatman), packed with 10 μL (dry volume) of Bio-Gel P6 (BIO-RAD) and swollen with milliQ water, was used as the SEC column. […] The SEC spin column was mounted on an acetonitrile-aliquoted 384-well U-bottom plate and centrifuged; the SEC spin column filtrate, which is a protein fraction, was recovered in 50% acetonitrile. The protein precipitate produced by the acetonitrile was removed via centrifugation and filtration for deproteinization; the resulting filtrate was concentrated by centrifugal concentration and re-dissolved in 10 μL of 50% methanol to obtain a mass analysis sample. The mobile phase supplied to the mass analyzer was 0.1% formic acid/50% methanol solution in the positive ion mode, and 0.1% ammonia/50% methanol solution in the negative ion mode; these mobile phases were used at a flow rate of 40 μL/min. 2-μL of mass analysis samples were injected using an autosampler at 2-minute intervals; the mass spectral intensity of the compound was measured to retrieve the spectral intensity of the pharmaceutical compound contained in the SEC spin column filtrate (protein fraction eluted from SEC).

FLJ41991-derived protein = target: T3, FLJ41991-derived protein (Homo sapiens, UniProt P57764, E293G); assay: SEC/MS interaction analysis, FLJ41991-derived protein (GSDMDC1); format: binding; conditions: for interaction judged from spectrum intensity of the compound in the SEC spin column filtrate (protein fraction eluted from SEC): spin column method, doses of both compound and protein varied
T3 construct: His-tag (N); made in house; host or cells: Escherichia coli BL21star(DE3)pLysS (pDEST17)
T3 sequence (P57764 265-484 E293G): T2 sequence (P57764 265-484) with E29G
Method in brief: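 Compound–protein mixtures separated by SEC (micro-LC column with 10 mM ammonium acetate mobile phase, or Bio-Gel P6 spin column) and analysed by ESI mass spectrometry. Interaction inferred from a protein-dependent shift in the compound's mass chromatogram, or from compound signal intensity in the eluted protein fraction.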

FLJ10537-derived protein = target: T4, FLJ10537-derived protein (Homo sapiens, UniProt Q9NR28); assay: SEC/MS interaction analysis, FLJ10537-derived protein (DIABLO homolog; SMAC); format: binding; conditions: TSKgel super SW2000 micro-LC column (1.0 mm ID×30 mm); presence vs absence of protein; data not shown
T4 construct: His-tag (N); made in house; host or cells: Escherichia coli BL21star(DE3)pLysS
T4 sequence (Q9NR28 1-186 isoform Q9NR28-2): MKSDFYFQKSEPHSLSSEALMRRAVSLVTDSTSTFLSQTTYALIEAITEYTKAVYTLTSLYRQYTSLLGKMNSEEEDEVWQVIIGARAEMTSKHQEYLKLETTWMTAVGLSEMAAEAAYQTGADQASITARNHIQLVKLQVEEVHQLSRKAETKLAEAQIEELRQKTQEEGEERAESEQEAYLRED
Description: as §1, §2, §3, §4, §5

[2] = SEC spin column filtrate, spectral intensity increased with doses of compound and protein
[3] = compound 12.5 μM, protein 10 μM
[4] = compound 12.5 μM, protein 25 μM
[5] = compound 62.5 μM, protein 10 μM
[6] = compound 62.5 μM, protein 25 μM

| SMILES | interaction judged from mass chromatogram of the compound (elution from SEC micro-LC column) (FLJ39553-derived protein) | FLJ No of the derived protein with which the compound was judged to exhibit a concentration-dependent interaction [1, 2] | interaction judged from mass spectrum peak intensity of the compound in the spin column filtrate (FLJ38897-derived protein) | spectrum intensity of the compound in the SEC spin column filtrate (FLJ41991-derived protein; compound 12.5 μM, protein 0 μM) | spectrum intensity of the compound in the SEC spin column filtrate (FLJ41991-derived protein; compound 12.5 μM, protein 5 μM) | spectrum intensity of the compound in the SEC spin column filtrate (FLJ41991-derived protein; [3]) | spectrum intensity of the compound in the SEC spin column filtrate (FLJ41991-derived protein; [4]) | spectrum intensity of the compound in the SEC spin column filtrate (FLJ41991-derived protein; compound 25 μM, protein 0 μM) | spectrum intensity of the compound in the SEC spin column filtrate (FLJ41991-derived protein; compound 25 μM, protein 5 μM) | spectrum intensity of the compound in the SEC spin column filtrate (FLJ41991-derived protein; compound 25 μM, protein 10 μM) | spectrum intensity of the compound in the SEC spin column filtrate (FLJ41991-derived protein; compound 25 μM, protein 25 μM) | spectrum intensity of the compound in the SEC spin column filtrate (FLJ41991-derived protein; compound 62.5 μM, protein 0 μM) | spectrum intensity of the compound in the SEC spin column filtrate (FLJ41991-derived protein; compound 62.5 μM, protein 5 μM) | spectrum intensity of the compound in the SEC spin column filtrate (FLJ41991-derived protein; [5]) | spectrum intensity of the compound in the SEC spin column filtrate (FLJ41991-derived protein; [6]) | interaction judged from spectrum intensity of the compound in the SEC spin column filtrate (protein fraction eluted from SEC) (FLJ41991-derived protein) | FLJ No of the derived protein with which the compound was judged to exhibit a concentration-dependent interaction [1] | interaction judged from mass chromatogram of the compound (elution from SEC micro-LC column) (FLJ10537-derived protein) |
| --- | --- | --- | --- | --- | --- | --- | --- | --- | --- | --- | --- | --- | --- | --- | --- | --- | --- | --- |
| C[C@@H]1[C@H](O)[C@@H](C)/C=C/C=C/C=C/C=C/C=C/C=C/C=C/[C@H](O[C@@H]2O[C@H](C)[C@@H](O)[C@H](N)[C@@H]2O)C[C@@H]2O[C@](O)(C[C@@H](O)C[C@@H](O)[C@H](O)CC[C@@H](O)C[C@@H](O)CC(=O)O[C@H]1C)C[C@H](O)[C@H]2C(=O)O [amphotericin B] | there was an interaction | FLJ39553 | – | – | – | – | – | – | – | – | – | – | – | – | – | – | – | – |
| CN(C)C(=O)C(CCN1CCC(O)(c2ccc(Cl)cc2)CC1)(c1ccccc1)c1ccccc1 [loperamide] | – | – | there was an interaction | 75412 | 200285 | 950587 | 1688197 | 263744 | 863800 | 1856141 | 4462655 | 1579322 | 3520629 | 6073080 | 9496680 | concentration-dependent interaction | FLJ41991; also recorded: FLJ38897 | – |
| OC(c1cc(C(F)(F)F)nc2c(C(F)(F)F)cccc12)C1CCCCN1 (stereo not drawn) [mefloquine] | – | FLJ37909; also recorded: FLJ38897; also recorded: FLJ41991 | there was an interaction | 16334 | 46239 | 101775 | 453818 | 27931 | 100287 | 273106 | 1788847 | 97153 | 528117 | 2017157 | 4385022 | concentration-dependent interaction | – | – |
| COc1c2occc2cc2ccc(=O)oc12 [methoxsalen] | – | FLJ10537 | – | – | – | – | – | – | – | – | – | – | – | – | – | – | – | there was an interaction |
| OCCN1CCN(CCCN2c3ccccc3Sc3ccc(Cl)cc32)CC1 [perphenazine] | – | FLJ38897; also recorded: FLJ41991 | there was an interaction | 23424 | 43607 | 83672 | 314285 | 38186 | 71806 | 229107 | 799962 | 35061 | 208220 | 695158 | 2872912 | concentration-dependent interaction | – | – |
| O=C(c1ccc(OCCN2CCCCC2)cc1)c1c(-c2ccc(O)cc2)sc2cc(O)ccc12 [raloxifene] | – | FLJ37909; also recorded: FLJ38897; also recorded: FLJ41991 | there was an interaction | 19251 | 32265 | 67187 | – | 37961 | 52442 | 119306 | 1312562 | 58164 | 153267 | 1091123 | 3195671 | concentration-dependent interaction | – | – |

Source: US20090143285A1, “TARGET PROTEIN AND TARGET GENE FOR DRUG DISCOVERY AND SCREENING METHOD” (REVERSE PROTEOMICS RESEARCH INSTITUTE CO., LTD., priority 2005, published 2009)
